# Key:
# Assay type in all cases: functional
# MCF7 = experiment: Growth inhibition of human MCF7 cells assessed as growth inhibition at 10 uM by sulforhodamine B assay; settings: read-out: GI
# DU-145 = experiment: Growth inhibition of human DU145 cells assessed as growth inhibition at 10 uM by sulforhodamine B assay; settings: read-out: GI
# UO-31 = experiment: Growth inhibition of human UO31 cells assessed as growth inhibition at 10 uM by sulforhodamine B assay; settings: read-out: GI
# TK-10 = experiment: Growth inhibition of human TK10 cells assessed as growth inhibition at 10 uM by sulforhodamine B assay; settings: read-out: GI
# SN12C = experiment: Growth inhibition of human SN12C cells assessed as growth inhibition at 10 uM by sulforhodamine B assay; settings: read-out: GI
# CAKI-1 = experiment: Growth inhibition of human CAKI-1 cells assessed as growth inhibition at 10 uM by sulforhodamine B assay; settings: read-out: GI
# A498 = experiment: Growth inhibition of human A498 cells assessed as growth inhibition at 10 uM by sulforhodamine B assay; settings: read-out: GI
# 786-0 = experiment: Growth inhibition of human 786-0 cells assessed as growth inhibition at 10 uM by sulforhodamine B assay; settings: read-out: GI
# SK-OV-3 [1] = experiment: Growth inhibition of human SKOV3 cells assessed as growth inhibition at 10 uM by sulforhodamine B assay; settings: read-out: GI
# MOLT-4 [2] = experiment: Growth inhibition of human MOLT4 cells assessed as cell growth at 10 uM by sulforhodamine B assay; settings: read-out: Activity
# HL-60(TB) = experiment: Growth inhibition of human HL-60(TB) cells assessed as cell growth at 10 uM by sulforhodamine B assay; settings: read-out: Activity
# IGROV-1 [3] = experiment: Growth inhibition of human IGROV1 cells assessed as growth inhibition at 10 uM by sulforhodamine B assay; settings: read-out: GI
# UACC-257 = experiment: Growth inhibition of human UACC257 cells assessed as growth inhibition at 10 uM by sulforhodamine B assay; settings: read-out: GI
# SK-MEL-28 [4] = experiment: Growth inhibition of human SK-MEL-28 cells assessed as growth inhibition at 10 uM by sulforhodamine B assay; settings: read-out: GI
# MDA-MB-435 [5] = experiment: Growth inhibition of human MDA-MB-435 cells assessed as growth inhibition at 10 uM by sulforhodamine B assay; settings: read-out: GI
# M14 [6] = experiment: Growth inhibition of human M14 cells assessed as growth inhibition at 10 uM by sulforhodamine B assay; settings: read-out: GI
# SF-539 = experiment: Growth inhibition of human SF539 cells assessed as growth inhibition at 10 uM by sulforhodamine B assay; settings: read-out: GI
# SF-268 = experiment: Growth inhibition of human SF268 cells assessed as growth inhibition at 10 uM by sulforhodamine B assay; settings: read-out: GI
# SW-620 [7] = experiment: Growth inhibition of human SW620 cells assessed as growth inhibition at 10 uM by sulforhodamine B assay; settings: read-out: GI
# KM12 [8] = experiment: Growth inhibition of human KM12 cells assessed as growth inhibition at 10 uM by sulforhodamine B assay; settings: read-out: GI
# NCI-H460 = experiment: Growth inhibition of human NCI-H460 cells assessed as growth inhibition at 10 uM by sulforhodamine B assay; settings: read-out: GI
# NCI-H322M = experiment: Growth inhibition of human NCI-H322M cells assessed as growth inhibition at 10 uM by sulforhodamine B assay; settings: read-out: GI
# NCI-H226 [9] = experiment: Growth inhibition of human NCI-H226 cells assessed as growth inhibition at 10 uM by sulforhodamine B assay; settings: read-out: GI
# HOP-92 [10] = experiment: Growth inhibition of human HOP92 cells assessed as growth inhibition at 10 uM by sulforhodamine B assay; settings: read-out: GI
# HOP-62 = experiment: Growth inhibition of human HOP62 cells assessed as growth inhibition at 10 uM by sulforhodamine B assay; settings: read-out: GI
# [11] = Growth inhibition of human EKVX cells assessed as growth inhibition at 10 uM by sulforhodamine B assay; settings: read-out: GI
# MOLT-4 [12] = experiment: Growth inhibition of human MOLT4 cells assessed as growth inhibition at 10 uM by sulforhodamine B assay; settings: read-out: GI
# T47D = experiment: Growth inhibition of human T47D cells assessed as cell growth at 10 uM by sulforhodamine B assay; settings: read-out: Activity
# BT-549 = experiment: Growth inhibition of human BT549 cells assessed as cell growth at 10 uM by sulforhodamine B assay; settings: read-out: Activity
# MDA-MB-231 = experiment: Growth inhibition of human MDA-MB-231 cells assessed as cell growth at 10 uM by sulforhodamine B assay; settings: read-out: Activity
# ACHN = experiment: Growth inhibition of human ACHN cells assessed as cell growth at 10 uM by sulforhodamine B assay; settings: read-out: Activity
# SK-OV-3 [13] = experiment: Growth inhibition of human SKOV3 cells assessed as cell growth at 10 uM by sulforhodamine B assay; settings: read-out: Activity
# OVCAR-5 = experiment: Growth inhibition of human OVCAR5 cells assessed as cell growth at 10 uM by sulforhodamine B assay; settings: read-out: Activity
# IGROV-1 [14] = experiment: Growth inhibition of human IGROV1 cells assessed as cell growth at 10 uM by sulforhodamine B assay; settings: read-out: Activity
# SK-MEL-5 = experiment: Growth inhibition of human SK-MEL-5 cells assessed as cell growth at 10 uM by sulforhodamine B assay; settings: read-out: Activity
# SK-MEL-28 [15] = experiment: Growth inhibition of human SK-MEL-28 cells assessed as cell growth at 10 uM by sulforhodamine B assay; settings: read-out: Activity
# SK-MEL-2 = experiment: Growth inhibition of human SK-MEL-2 cells assessed as cell growth at 10 uM by sulforhodamine B assay; settings: read-out: Activity
# M14 [16] = experiment: Growth inhibition of human M14 cells assessed as cell growth at 10 uM by sulforhodamine B assay; settings: read-out: Activity
# MDA-MB-435 [17] = experiment: Growth inhibition of human MDA-MB-435 cells assessed as cell growth at 10 uM by sulforhodamine B assay; settings: read-out: Activity
# Malme-3M = experiment: Growth inhibition of human MALME-3M cells assessed as cell growth at 10 uM by sulforhodamine B assay; settings: read-out: Activity
# U-251 = experiment: Growth inhibition of human U251 cells assessed as cell growth at 10 uM by sulforhodamine B assay; settings: read-out: Activity
# SNB-19 = experiment: Growth inhibition of human SNB19 cells assessed as cell growth at 10 uM by sulforhodamine B assay; settings: read-out: Activity
# SW-620 [18] = experiment: Growth inhibition of human SW620 cells assessed as cell growth at 10 uM by sulforhodamine B assay; settings: read-out: Activity
# KM12 [19] = experiment: Growth inhibition of human KM12 cells assessed as cell growth at 10 uM by sulforhodamine B assay; settings: read-out: Activity
# HCT-15 = experiment: Growth inhibition of human HCT15 cells assessed as cell growth at 10 uM by sulforhodamine B assay; settings: read-out: Activity
# COLO 205 = experiment: Growth inhibition of human COLO205 cells assessed as cell growth at 10 uM by sulforhodamine B assay; settings: read-out: Activity
# NCI-H226 [20] = experiment: Growth inhibition of human NCI-H226 cells assessed as cell growth at 10 uM by sulforhodamine B assay; settings: read-out: Activity
# HOP-92 [21] = experiment: Growth inhibition of human HOP92 cells assessed as cell growth at 10 uM by sulforhodamine B assay; settings: read-out: Activity
# RPMI-8226 = experiment: Growth inhibition of human RPMI8226 cells assessed as cell growth at 10 uM by sulforhodamine B assay; settings: read-out: Activity
compound,measurement,setting,value
CC1(C)C[C@@H](O)[C@]2(C(=O)O)CC[C@]3(C)C(=CC[C@@H]4[C@@]5(C)C/C(=C\C=C\c6ccccc6)C(=O)C(C)(C)[C@@H]5CC[C@]43C)[C@@H]2C1,inhibition of growth at 10 µM,MCF7,66.2%
same,inhibition of growth at 10 µM,DU-145,28.8%
same,inhibition of growth at 10 µM,UO-31,59.7%
same,inhibition of growth at 10 µM,TK-10,11.7%
same,inhibition of growth at 10 µM,SN12C,54.5%
same,inhibition of growth at 10 µM,CAKI-1,57%
same,inhibition of growth at 10 µM,A498,< 10%
same,inhibition of growth at 10 µM,786-0,21.9%
same,inhibition of growth at 10 µM,SK-OV-3 [1],14.3%
same,growth at 10 µM,MOLT-4 [2],44.4%
same,growth at 10 µM,HL-60(TB),38.8%
same,inhibition of growth at 10 µM,IGROV-1 [3],39.2%
same,inhibition of growth at 10 µM,UACC-257,38%
same,inhibition of growth at 10 µM,SK-MEL-28 [4],25.8%
same,inhibition of growth at 10 µM,MDA-MB-435 [5],27.7%
same,inhibition of growth at 10 µM,M14 [6],27.1%
same,inhibition of growth at 10 µM,SF-539,< 10%
same,inhibition of growth at 10 µM,SF-268,29.3%
same,inhibition of growth at 10 µM,SW-620 [7],44.2%
same,inhibition of growth at 10 µM,KM12 [8],68.2%
same,inhibition of growth at 10 µM,NCI-H460,54.2%
same,inhibition of growth at 10 µM,NCI-H322M,28.1%
same,inhibition of growth at 10 µM,NCI-H226 [9],27.7%
same,inhibition of growth at 10 µM,HOP-92 [10],50.8%
same,inhibition of growth at 10 µM,HOP-62,37.2%
same,inhibition of growth at 10 µM,[11],60.6%
same,inhibition of growth at 10 µM,MOLT-4 [12],55.6%
same,growth at 10 µM,T47D,37.6%
same,growth at 10 µM,BT-549,70%
same,growth at 10 µM,MDA-MB-231,68.9%
same,growth at 10 µM,ACHN,41.9%
same,growth at 10 µM,SK-OV-3 [13],85.7%
same,growth at 10 µM,OVCAR-5,104%
same,growth at 10 µM,IGROV-1 [14],60.8%
same,growth at 10 µM,SK-MEL-5,73.7%
same,growth at 10 µM,SK-MEL-28 [15],74.2%
same,growth at 10 µM,SK-MEL-2,64.6%
same,growth at 10 µM,M14 [16],72.9%
same,growth at 10 µM,MDA-MB-435 [17],72.3%
same,growth at 10 µM,Malme-3M,84.5%
same,growth at 10 µM,U-251,33.6%
same,growth at 10 µM,SNB-19,73.4%
same,growth at 10 µM,SW-620 [18],55.8%
same,growth at 10 µM,KM12 [19],31.8%
same,growth at 10 µM,HCT-15,35.2%
same,growth at 10 µM,COLO 205,97.8%
same,growth at 10 µM,NCI-H226 [20],72.3%
same,growth at 10 µM,HOP-92 [21],49.2%
same,growth at 10 µM,RPMI-8226,15.6%
C/C=C(/C)C(=O)O[C@@H]1CC(C)(C)C[C@H]2C3=CC[C@@H]4[C@@]5(C)CCC(=O)C(C)(C)[C@@H]5CC[C@@]4(C)[C@]3(C)CC[C@@]12C(=O)O [LANTADENE A],inhibition of growth at 10 µM,MCF7,45.3%
same,inhibition of growth at 10 µM,DU-145,17.4%
same,inhibition of growth at 10 µM,UO-31,57.4%
same,inhibition of growth at 10 µM,TK-10,16.7%
same,inhibition of growth at 10 µM,SN12C,47.6%
same,inhibition of growth at 10 µM,CAKI-1,51.6%
same,inhibition of growth at 10 µM,A498,23.8%
same,inhibition of growth at 10 µM,786-0,55.5%
same,inhibition of growth at 10 µM,SK-OV-3 [1],< 10%
same,growth at 10 µM,MOLT-4 [2],43.3%
same,growth at 10 µM,HL-60(TB),-5.42%
same,inhibition of growth at 10 µM,IGROV-1 [3],28.4%
same,inhibition of growth at 10 µM,UACC-257,30%
same,inhibition of growth at 10 µM,SK-MEL-28 [4],17.3%
same,inhibition of growth at 10 µM,MDA-MB-435 [5],12.2%
same,inhibition of growth at 10 µM,M14 [6],36.2%
same,inhibition of growth at 10 µM,SF-539,21.8%
same,inhibition of growth at 10 µM,SF-268,25.9%
same,inhibition of growth at 10 µM,SW-620 [7],31.3%
same,inhibition of growth at 10 µM,KM12 [8],60%
same,inhibition of growth at 10 µM,NCI-H460,48.5%
same,inhibition of growth at 10 µM,NCI-H322M,31.4%
same,inhibition of growth at 10 µM,NCI-H226 [9],18%
same,inhibition of growth at 10 µM,HOP-92 [10],56.3%
same,inhibition of growth at 10 µM,HOP-62,24.4%
same,inhibition of growth at 10 µM,[11],50.7%
same,inhibition of growth at 10 µM,MOLT-4 [12],56.7%
same,growth at 10 µM,T47D,63.9%
same,growth at 10 µM,BT-549,44%
same,growth at 10 µM,MDA-MB-231,75.7%
same,growth at 10 µM,ACHN,53.9%
same,growth at 10 µM,SK-OV-3 [13],90.1%
same,growth at 10 µM,OVCAR-5,92.4%
same,growth at 10 µM,IGROV-1 [14],71.6%
same,growth at 10 µM,SK-MEL-5,38.7%
same,growth at 10 µM,SK-MEL-28 [15],82.7%
same,growth at 10 µM,SK-MEL-2,77.1%
same,growth at 10 µM,M14 [16],63.8%
same,growth at 10 µM,MDA-MB-435 [17],87.8%
same,growth at 10 µM,Malme-3M,80.4%
same,growth at 10 µM,U-251,60.1%
same,growth at 10 µM,SNB-19,59.4%
same,growth at 10 µM,SW-620 [18],68.7%
same,growth at 10 µM,KM12 [19],40%
same,growth at 10 µM,HCT-15,30.2%
same,growth at 10 µM,COLO 205,78%
same,growth at 10 µM,NCI-H226 [20],82%
same,growth at 10 µM,HOP-92 [21],43.7%
same,growth at 10 µM,RPMI-8226,16.6%

# Reference: ChEMBL document CHEMBL2413072, “Synthesis and in vitro anticancer studies of novel C-2 arylidene congeners of lantadenes” (2013)
